The structures appear in SMILES notation. “Also recorded” adds a separate entry of the source. Where a SMILES comes first, the peptide text is derived from it. Bridges are numbered along the chain shown (N, C = ends).

This data set relates to auditory nerve and generators caudal to the IC. As to the kind of experiment: Auditory brainstem responses (ABR). It counts as in vivo, mouse. Here is the method:
The temperature was maintained near 25 °C.
ABR recordings were acquired after the mice were anesthetized with ketamine (120 mg/kg) and xylazine (10 mg/kg) I.P., and respiration was monitored throughout to determine when additional supplemental doses were needed. Body temperature was kept constant at 37 °C using a feedback controlled heating pad (Physitemp TCAT2-LV Controller, Clifton, NJ). Stimuli and recordings were generated digitally and controlled using a TDT RZ6 Multi-I/O Processor and their BioSig/SigGen software. Acoustic signals were played through a multi-field (MF1) magnetic speaker (TDT, Alachua, FL) with a total harmonic distortion < = 1% from 1 kHz to 50 kHz, centered 0° azimuth in regards to the animal at a distance of 10 cm from the ear pinna. Tone bursts were presented at frequencies of 6, 12, 16, 20, 24, and 36 kHz (3 ms duration, 1 ms rise/fall time, alternating polarity) at a rate of 29 per second, attenuated in 5 dB steps from 80 dB SPL to 15 dB below threshold or 5 dB SPL, whichever was lower. Threshold was determined by visual inspection as the lowest intensity level which produced a defined wave in both replicates. All signals were calibrated using a Larsen Davis preamplifier, model 2221, with a 1/4″ microphone and a Larson Davis CAL200 Precision Acoustic Calibrator (PCB Piezotronics, Inc., Depew, NY). ABR recordings were acquired using a TDT RA4LI low-impedance digital headstage and RA4PA Medusa preamp with the active (noninverting) electrode inserted at the vertex, the reference (inverting) electrode below the left ear, and the ground electrode below the right ear. The responses were amplified (20×), filtered (300 Hz–3 kHz), and averaged using BioSig software and the System III hardware (TDT) data-acquisition system. A total of 256 tone burst signal and 150 GIN signal recordings were replicated for each acquisition, and muscle artifacts exceeding 7 μV were rejected from the averaged response. All recordings took place in a soundproof booth lined with echo-attenuating acoustic foam. ABR waveforms were analyzed using a custom MatLab program that automatically determined peak latencies and amplitudes in combination with secondary verification by an experimenter blind to the treatment group.

`CC(C)C[C@@H]1NC(=O)CNC(=O)[C@H](CCCNC(=N)N)NC(=O)[C@H](CCCNC(=N)N)NC(=O)[C@@H](N)CSSC[C@@H](C(=O)O)NC(=O)[C@H](C(C)C)NC(=O)[C@H](CCC(N)=O)NC(=O)[C@H](C(C)C)NC1=O` [LS3] (H-CRRGLVQVC-OH; disulfide 1-9; N-terminus and C-terminus assumed): the “mean ABR thresholds” value (4 hours post I.P. injection vs. baseline, tone bursts) is listed as “No significant effect”. The “activity at cochlear BK channels” value (inferred from unaltered ABRs after systemic administration) is on record as “not active at cochlear BK channels”. Further, the “effect on ABRs / peripheral auditory processing” value (systemic (I.P.) administration) was “without altering peripheral auditory processing; also recorded: does not alter ABRs”. Also, the “ABR peak 1 (P1) amplitude by intensity functions” value (systemic (I.P.) injection, 4 hrs vs. baseline, auditory nerve) was “unaffected; also recorded: Neither BK channel modulator reduced auditory nerve (P1)”. Moreover, the “ABR peak 4 (P4) amplitude by intensity functions” value (systemic (I.P.) injection, 4 hrs vs. baseline, generators caudal to the IC (brainstem)) is reported as “unaffected; also recorded: Neither BK channel modulator reduced auditory nerve (P1) or brainstem (P4) amplitudes”.
